Experimental data: PubChem BioAssay AID248 (DTP/NCI, 2004)
Where “and” joins values, the source holds several entries; their conditions need not be identical. Equal entries are not always repeated. Toxic doses and inconclusive results are not listed. Rule as the data show it: active = T/C of 150% or more; inactive = T/C below 125%.

System: L1210 leukemia ip in BDF1 mice, survival T/C
Test: NCI In Vivo Anticancer Drug Screen. Data for tumor model L1210 Leukemia (intraperitoneal) in B6D2F1 (BDF1) mice
Details: endpoint: mean survival time, higher = longer survival
Summary of the method: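 Each compound was tested against a transplantable tumor grown in mice. The endpoint was survival, with treated animals benchmarked against vehicle controls as a simple ratio.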

[1] = dose: 100.0 mg/kg/injection, schedule: Q01DX001 (ip), vehicle: Klucel (hydroxypropylcellulose) (HPC)
[2] = dose: 200.0 mg/kg/injection, schedule: Q01DX001 (ip), vehicle: Klucel (hydroxypropylcellulose) (HPC)
[3] = dose: 400.0 mg/kg/injection, schedule: Q01DX001 (ip), vehicle: Klucel (hydroxypropylcellulose) (HPC)
[4] = dose: 100.0 mg/kg/injection, schedule: Q01DX009 (ip), vehicle: Klucel (hydroxypropylcellulose) (HPC)
[5] = dose: 100.0 mg/kg/injection, schedule: Q04DX003 (ip), vehicle: Klucel (hydroxypropylcellulose) (HPC)
[6] = dose: 200.0 mg/kg/injection, schedule: Q01DX009 (ip), vehicle: Klucel (hydroxypropylcellulose) (HPC)
[7] = dose: 200.0 mg/kg/injection, schedule: Q04DX003 (ip), vehicle: Klucel (hydroxypropylcellulose) (HPC)
[8] = dose: 400.0 mg/kg/injection, schedule: Q01DX009 (ip), vehicle: Klucel (hydroxypropylcellulose) (HPC)
[9] = dose: 400.0 mg/kg/injection, schedule: Q04DX003 (ip), vehicle: Klucel (hydroxypropylcellulose) (HPC)
[10] = dose: 50.0 mg/kg/injection, schedule: Q01DX009 (ip), vehicle: saline with Tween-80
[11] = dose: 100.0 mg/kg/injection, schedule: Q01DX001 (ip), vehicle: carboxymethylcellulose (CMC)

Measured: T/C

C=NN=C(N)N
inactive: dose: 0.38 mg/kg/injection, schedule: Q01DX Z (ip), vehicle: saline 100 % of control | dose: 0.75 mg/kg/injection, schedule: Q01DX Z (ip), vehicle: saline 92 % of control | dose: 3.0 mg/kg/injection, schedule: Q01DX Z (ip), vehicle: saline 87 % of control | dose: 6.0 mg/kg/injection, schedule: Q01DX Z (ip), vehicle: saline 106 % of control | dose: 12.0 mg/kg/injection, schedule: Q01DX Z (ip), vehicle: saline 102 % of control | dose: 15.0 mg/kg/injection, schedule: Q01DX Z (ip), vehicle: saline 100 % of control | dose: 15.0 mg/kg/injection, schedule: Q01DX Z (oral), vehicle: saline 86 % of control | dose: 30.0 mg/kg/injection, schedule: Q01DX Z (ip), vehicle: saline 105 % of control | dose: 30.0 mg/kg/injection, schedule: Q01DX Z (oral), vehicle: saline 92 % of control

Cc1cccc(C(Cc2ccc(N3C(N)=NC(N)=NC3(C)C)cc2)C(=O)Nc2ccc(S(=O)(=O)F)cc2)c1 (configuration not stated)
inactive: dose: 100.0 mg/kg/injection, schedule: Q01DX001 (ip), vehicle: saline 108 % of control | dose: 200.0 mg/kg/injection, schedule: Q01DX001 (ip), vehicle: saline 110 % of control | dose: 400.0 mg/kg/injection, schedule: Q01DX001 (ip), vehicle: saline 98 % of control

COc1ccc(-n2c(=O)c(N=Nc3ccc(Br)cc3)c(O)n(-c3ccccc3C)c2=S)cc1
inactive: dose: 75.0 mg/kg/injection, schedule: Q04DX003 (ip), vehicle: Klucel (hydroxypropylcellulose) (HPC) 98 % of control | dose: 150.0 mg/kg/injection, schedule: Q04DX003 (ip), vehicle: Klucel (hydroxypropylcellulose) (HPC) 104 % of control | dose: 300.0 mg/kg/injection, schedule: Q04DX003 (ip), vehicle: Klucel (hydroxypropylcellulose) (HPC) 107 % of control

O=C(O)c1ccccc1C(=O)c1ccc(-c2ccccc2)cc1
inactive: [1] 110 % of control | [2] 102 % of control | [3] 100 % of control

Cc1cc(OC(=O)Nc2ccccc2Cl)ccc1[N+](=O)[O-]
inactive: [4] 107 % of control | [5] 100 % of control | [6] 104 % of control | [7] 89 % of control | [8] 98 % of control | [9] 102 % of control

CCCC(C)OS(=O)(=O)c1ccc(N)cc1 (configuration not stated)
inactive: [4] 113 % of control | [6] 95 % of control

O=C(Nc1ccc(Cl)cc1Cl)OCCOc1ccc([N+](=O)[O-])cc1
inactive: [10] 102 % of control | dose: 100.0 mg/kg/injection, schedule: Q01DX009 (ip), vehicle: saline with Tween-80 98 % of control | dose: 200.0 mg/kg/injection, schedule: Q01DX009 (ip), vehicle: saline with Tween-80 93 % of control

Cc1cc(-c2ccccc2)c2ccc3c(-c4ccccc4)cc(C)nc3c2n1
inactive: dose: 0.5 mg/kg/injection, schedule: Q01DX001 (ip), vehicle: carboxymethylcellulose (CMC) 105 % of control | dose: 1.0 mg/kg/injection, schedule: Q01DX001 (ip), vehicle: carboxymethylcellulose (CMC) 112 % of control | dose: 2.0 mg/kg/injection, schedule: Q01DX001 (ip), vehicle: carboxymethylcellulose (CMC) 95 % of control | dose: 4.0 mg/kg/injection, schedule: Q01DX001 (ip), vehicle: carboxymethylcellulose (CMC) 97 % of control | dose: 8.0 mg/kg/injection, schedule: Q01DX001 (ip), vehicle: carboxymethylcellulose (CMC) 100 % of control | dose: 10.0 mg/kg/injection, schedule: Q01DX001 (ip), vehicle: carboxymethylcellulose (CMC) 100 % of control | dose: 20.0 mg/kg/injection, schedule: Q01DX001 (ip), vehicle: carboxymethylcellulose (CMC) 95 % of control | dose: 80.0 mg/kg/injection, schedule: Q01DX001 (ip), vehicle: carboxymethylcellulose (CMC) 95 % of control | [11] 97 % of control

CC(C)(C(=O)[O-])C(=O)O.[Co+3].[NH2-].[NH2-].[NH2-].[NH2-].[NH2-].[O-][Cl+3]([O-])([O-])O
inactive: dose: 100.0 mg/kg/injection, schedule: Q04DX002 (ip), vehicle: saline 92 % of control | dose: 200.0 mg/kg/injection, schedule: Q04DX002 (ip), vehicle: saline 95 % of control | dose: 400.0 mg/kg/injection, schedule: Q04DX002 (ip), vehicle: saline 106 % of control

CCOC(=O)c1c(O)csc1C
inactive: [4] 93 % of control | [5] 98 % of control | [6] 90 % of control | [7] 101 % of control | [8] 109 % of control | [9] 97 % of control

CC(C)C(=O)[O][Pb]([c]1ccccc1)([c]1ccccc1)[c]1ccccc1
inactive: dose: 12.5 mg/kg/injection, schedule: Q04DX002 (ip), vehicle: Klucel (hydroxypropylcellulose) (HPC) 101 % of control | dose: 25.0 mg/kg/injection, schedule: Q04DX002 (ip), vehicle: Klucel (hydroxypropylcellulose) (HPC) 97 % of control | dose: 50.0 mg/kg/injection, schedule: Q04DX002 (ip), vehicle: Klucel (hydroxypropylcellulose) (HPC) 97 % of control

Cn1ncc2c(N)[nH]nc21
inactive: dose: 75.0 mg/kg/injection, schedule: Q01DX001 (ip), vehicle: saline 107 % of control | dose: 150.0 mg/kg/injection, schedule: Q01DX001 (ip), vehicle: saline 90 % of control | dose: 300.0 mg/kg/injection, schedule: Q01DX001 (ip), vehicle: saline 98 % of control

Nc1cc(Cl)c(Cl)c(Cl)c1
inactive: dose: 88.8 mg/kg/injection, schedule: Q01DX001 (ip), vehicle: carboxymethylcellulose (CMC) 97 % of control and 100 % of control | [11] 91 % of control | dose: 133.4 mg/kg/injection, schedule: Q01DX001 (ip), vehicle: carboxymethylcellulose (CMC) 94 % of control and 100 % of control | dose: 300.0 mg/kg/injection, schedule: Q01DX001 (ip), vehicle: carboxymethylcellulose (CMC) 97 % of control and 91 % of control | dose: 400.0 mg/kg/injection, schedule: Q01DX001 (ip), vehicle: carboxymethylcellulose (CMC) 91 % of control

NC(N)=Nc1ccc(OC(=O)c2ccc(N=C(N)N)cc2)cc1
inactive: dose: 25.0 mg/kg/injection, schedule: Q01DX009 (ip), vehicle: water 96 % of control | dose: 50.0 mg/kg/injection, schedule: Q01DX009 (ip), vehicle: water 96 % of control

Nc1ncnc2cc(O)[nH]c12
inactive: dose: 50.0 mg/kg/injection, schedule: Q01DX001 (ip), vehicle: carboxymethylcellulose (CMC) 107 % of control | [11] 104 % of control

CCN(CC)C(=O)C1C2C=CC(C2)C1C(=O)N(CC)CC (configuration not stated)
inactive: dose: 100.0 mg/kg/injection, schedule: Q04DX003 (ip), vehicle: saline with Tween-80 98 % of control | dose: 200.0 mg/kg/injection, schedule: Q04DX003 (ip), vehicle: saline with Tween-80 98 % of control

O=C(Nc1ccc(Nc2ccccc2)cc1)Nc1ccc(F)c(Cl)c1
inactive: [5] 92 % of control | [7] 94 % of control | [9] 94 % of control

CC(C)NC(=O)N(c1ccccc1)c1ccccc1
inactive: dose: 100.0 mg/kg/injection, schedule: Q01DX009 (ip), vehicle: gum acacia 104 % of control | dose: 100.0 mg/kg/injection, schedule: Q04DX003 (ip), vehicle: gum acacia 97 % of control | dose: 200.0 mg/kg/injection, schedule: Q01DX009 (ip), vehicle: gum acacia 111 % of control | dose: 200.0 mg/kg/injection, schedule: Q04DX003 (ip), vehicle: gum acacia 100 % of control | dose: 400.0 mg/kg/injection, schedule: Q01DX009 (ip), vehicle: gum acacia 101 % of control | dose: 400.0 mg/kg/injection, schedule: Q04DX003 (ip), vehicle: gum acacia 99 % of control

O=C(C[n+]1ccccc1)N/N=C/c1cccc([N+](=O)[O-])c1
inactive: [10] 91 % of control

Cc1ccc(S(=O)(=O)NCCCc2c(C)nc(N)n(Cc3cccc([N+](=O)[O-])c3)c2=O)cc1
inactive: [1] 103 % of control | [2] 91 % of control | [3] 103 % of control
